# Legend:
# Assay type in all cases: functional
# Escherichia coli [1] = experiment: Antimicrobial activity against CTX-M-14, TEM-1-like beta-lactamase producing Escherichia coli isolate CUMC180 by disk diffusion method in presence of beta-lactamase inhibitor clavulanic acid
# Escherichia coli [2] = experiment: Antimicrobial activity against CMY-2 beta-lactamase producing Escherichia coli isolate CUMC190 by disk diffusion method
# Escherichia coli [3] = experiment: Antimicrobial activity against CMY-2 beta-lactamase producing Escherichia coli isolate CUMC181 by disk diffusion method in presence of beta-lactamase inhibitor clavulanic acid
# Escherichia coli [4] = experiment: Antimicrobial activity against CMY-2 beta-lactamase producing Escherichia coli isolate CUMC243 by disk diffusion method in presence of beta-lactamase inhibitor clavulanic acid
# Escherichia coli [5] = experiment: Antimicrobial activity against CTX-M-14, TEM-1 beta-lactamase producing Escherichia coli isolate CUMC174 by disk diffusion method
# Escherichia coli [6] = experiment: Antimicrobial activity against CTX-M-14-like, TEM-1-like beta-lactamase producing Escherichia coli isolate CUMC192 by disk diffusion method in presence of beta-lactamase inhibitor clavulanic acid
# Escherichia coli [7] = experiment: Antimicrobial activity against CMY-2,CTX-M-14,TEM-2-like beta-lactamase producing Escherichia coli isolate CUMC215 by disk diffusion method
# Escherichia coli [8] = experiment: Antimicrobial activity against CMY-2,TEM-2-like beta-lactamase producing Escherichia coli isolate CUMC224 by disk diffusion method
# Klebsiella pneumoniae [9] = experiment: Antimicrobial activity against CMY-2,CTX-M-14,TEM-2-like beta-lactamase producing Klebsiella pneumoniae isolate CUMCK2 by disk diffusion method
# Escherichia coli [10] = experiment: Antimicrobial activity against CTX-M-14, TEM-1-like beta-lactamase producing Escherichia coli isolate CUMC244 by disk diffusion method
# Escherichia coli [11] = experiment: Antimicrobial activity against CMY-2 beta-lactamase producing Escherichia coli isolate CUMC201 by disk diffusion method in presence of beta-lactamase inhibitor clavulanic acid
# Klebsiella pneumoniae [12] = experiment: Antimicrobial activity against SHV-12-like, SHV-1-like beta-lactamase producing Klebsiella pneumoniae isolate CUMCK9 by disk diffusion method
# Escherichia coli [13] = experiment: Antimicrobial activity against CTX-M-14-like, TEM-1-like beta-lactamase producing Escherichia coli isolate CUMC203 by disk diffusion method in presence of beta-lactamase inhibitor clavulanic acid
# Escherichia coli [14] = experiment: Antimicrobial activity against CTX-M-14-like, TEM-1-like beta-lactamase producing Escherichia coli isolate CUMC204 by disk diffusion method in presence of beta-lactamase inhibitor clavulanic acid
# Escherichia coli [15] = experiment: Antimicrobial activity against CTX-M-14, TEM-1-like beta-lactamase producing Escherichia coli isolate CUMC176 by disk diffusion method in presence of beta-lactamase inhibitor clavulanic acid
# Escherichia coli [16] = experiment: Antimicrobial activity against CTX-M-14-like, TEM-1-like beta-lactamase producing Escherichia coli isolate CUMC192 by disk diffusion method
# Escherichia coli [17] = experiment: Antimicrobial activity against CMY-2 beta-lactamase producing Escherichia coli isolate CUMC225 by disk diffusion method
# Escherichia coli [18] = experiment: Antimicrobial activity against CMY-2 beta-lactamase producing Escherichia coli isolate CUMC201 by disk diffusion method
# Escherichia coli [19] = experiment: Antimicrobial activity against CTX-M-14, TEM-1-like beta-lactamase producing Escherichia coli isolate CUMC241 by disk diffusion method in presence of beta-lactamase inhibitor clavulanic acid
# Escherichia coli [20] = experiment: Antimicrobial activity against CTX-M-15,OXA-30 beta-lactamase producing Escherichia coli isolate CUMC245 by disk diffusion method in presence of beta-lactamase inhibitor clavulanic acid
# Escherichia coli [21] = experiment: Antimicrobial activity against CMY-2 beta-lactamase producing Escherichia coli isolate CUMC243 by disk diffusion method
# Escherichia coli [22] = experiment: Antimicrobial activity against CMY-2 beta-lactamase producing Escherichia coli isolate CUMC181 by disk diffusion method
# Escherichia coli [23] = experiment: Antimicrobial activity against CTX-M-14, TEM-1-like beta-lactamase producing Escherichia coli isolate CUMC180 by disk diffusion method
# Escherichia coli [24] = experiment: Antimicrobial activity against CTX-M-14-like, TEM-1-like beta-lactamase producing Escherichia coli isolate CUMC233 by disk diffusion method
# Escherichia coli [25] = experiment: Antimicrobial activity against CTX-M-15,OXA-30 beta-lactamase producing Escherichia coli isolate CUMC245 by disk diffusion method
# Escherichia coli [26] = experiment: Antimicrobial activity against CMY-2 beta-lactamase producing Escherichia coli isolate CUMC225 by disk diffusion method in presence of beta-lactamase inhibitor clavulanic acid
# Escherichia coli [27] = experiment: Antimicrobial activity against CTX-M-14-like, TEM-1-like beta-lactamase producing Escherichia coli isolate CUMC204 by disk diffusion method
# Escherichia coli [28] = experiment: Antimicrobial activity against CTX-M-14, TEM-1-like beta-lactamase producing Escherichia coli isolate CUMC248 by disk diffusion method
# Escherichia coli [29] = experiment: Antimicrobial activity against CTX-M-14-like, TEM-1-like beta-lactamase producing Escherichia coli isolate CUMC233 by disk diffusion method in presence of beta-lactamase inhibitor clavulanic acid
# Escherichia coli [30] = experiment: Antimicrobial activity against CTX-M-14, TEM-1-like beta-lactamase producing Escherichia coli isolate CUMC248 by disk diffusion method in presence of beta-lactamase inhibitor clavulanic acid
# Klebsiella pneumoniae [31] = experiment: Antimicrobial activity against SHV-12-like, SHV-1-like beta-lactamase producing Klebsiella pneumoniae isolate CUMCK9 by disk diffusion method in presence of beta-lactamase inhibitor clavulanic acid
# Escherichia coli [32] = experiment: Antimicrobial activity against CMY-2,TEM-2-like beta-lactamase producing Escherichia coli isolate CUMC224 by disk diffusion method in presence of beta-lactamase inhibitor clavulanic acid
# Escherichia coli [33] = experiment: Antimicrobial activity against CTX-M-14, TEM-1 beta-lactamase producing Escherichia coli isolate CUMC174 by disk diffusion method in presence of beta-lactamase inhibitor clavulanic acid
# Escherichia coli [34] = experiment: Antimicrobial activity against CMY-2 beta-lactamase producing Escherichia coli isolate CUMC190 by disk diffusion method in presence of beta-lactamase inhibitor clavulanic acid
# Escherichia coli [35] = experiment: Antimicrobial activity against CMY-2 beta-lactamase producing Escherichia coli isolate CUMC223 by disk diffusion method
# Escherichia coli [36] = experiment: Antimicrobial activity against CTX-M-14, TEM-1-like beta-lactamase producing Escherichia coli isolate CUMC244 by disk diffusion method in presence of beta-lactamase inhibitor clavulanic acid
# Escherichia coli [37] = experiment: Antimicrobial activity against CTX-M-14-like, TEM-1-like beta-lactamase producing Escherichia coli isolate CUMC203 by disk diffusion method
# Klebsiella pneumoniae [38] = experiment: Antimicrobial activity against CMY-2,CTX-M-14,TEM-2-like beta-lactamase producing Klebsiella pneumoniae isolate CUMCK2 by disk diffusion method in presence of beta-lactamase inhibitor clavulanic acid
# Escherichia coli [39] = experiment: Antimicrobial activity against CTX-M-14, TEM-1-like beta-lactamase producing Escherichia coli isolate CUMC241 by disk diffusion method
# Escherichia coli [40] = experiment: Antimicrobial activity against CMY-2 beta-lactamase producing Escherichia coli isolate CUMC223 by disk diffusion method in presence of beta-lactamase inhibitor clavulanic acid
# Escherichia coli [41] = experiment: Antimicrobial activity against CMY-2,CTX-M-14,TEM-2-like beta-lactamase producing Escherichia coli isolate CUMC215 by disk diffusion method in presence of beta-lactamase inhibitor clavulanic acid
# Escherichia coli [42] = experiment: Antimicrobial activity against CTX-M-14, TEM-1-like beta-lactamase producing Escherichia coli isolate CUMC176 by disk diffusion method
# Escherichia coli [43] = experiment: Antimicrobial activity against CMY-2 beta-lactamase producing Escherichia coli isolate CUMC214 by disk diffusion method in presence of beta-lactamase inhibitor clavulanic acid
# Escherichia coli [44] = experiment: Antimicrobial activity against CMY-2 beta-lactamase producing Escherichia coli isolate CUMC214 by disk diffusion method
smiles,measurement,setting,value
CC(C)(O/N=C(\C(=O)N[C@@H]1C(=O)N2C(C(=O)[O-])=C(C[n+]3ccccc3)CS[C@H]12)c1csc(N)n1)C(=O)O [CEFTAZIDIME],inhibition zone (IZ),Escherichia coli [1],31 mm
same,inhibition zone (IZ),Escherichia coli [2],8 mm
same,inhibition zone (IZ),Escherichia coli [3],14 mm
same,inhibition zone (IZ),Escherichia coli [4],12 mm
same,inhibition zone (IZ),Escherichia coli [5],27 mm
same,inhibition zone (IZ),Escherichia coli [6],30 mm
same,inhibition zone (IZ),Escherichia coli [7],6 mm
same,inhibition zone (IZ),Escherichia coli [8],7 mm
same,inhibition zone (IZ),Klebsiella pneumoniae [9],8 mm
same,inhibition zone (IZ),Escherichia coli [10],26 mm
same,inhibition zone (IZ),Escherichia coli [11],12 mm
same,inhibition zone (IZ),Klebsiella pneumoniae [12],6 mm
same,inhibition zone (IZ),Escherichia coli [13],29 mm
same,inhibition zone (IZ),Escherichia coli [14],30 mm
same,inhibition zone (IZ),Escherichia coli [15],33 mm
same,inhibition zone (IZ),Escherichia coli [16],28 mm
same,inhibition zone (IZ),Escherichia coli [17],6 mm
same,inhibition zone (IZ),Escherichia coli [18],8 mm
same,inhibition zone (IZ),Escherichia coli [19],32 mm
same,inhibition zone (IZ),Escherichia coli [20],29 mm
same,inhibition zone (IZ),Escherichia coli [21],7 mm
same,inhibition zone (IZ),Escherichia coli [22],6 mm
same,inhibition zone (IZ),Escherichia coli [23],29 mm
same,inhibition zone (IZ),Escherichia coli [24],31 mm
same,inhibition zone (IZ),Escherichia coli [25],16 mm
same,inhibition zone (IZ),Escherichia coli [26],11 mm
same,inhibition zone (IZ),Escherichia coli [27],27 mm
same,inhibition zone (IZ),Escherichia coli [28],25 mm
same,inhibition zone (IZ),Escherichia coli [29],32 mm
same,inhibition zone (IZ),Escherichia coli [30],29 mm
same,inhibition zone (IZ),Klebsiella pneumoniae [31],26 mm
same,inhibition zone (IZ),Escherichia coli [32],13 mm
same,inhibition zone (IZ),Escherichia coli [33],30 mm
same,inhibition zone (IZ),Escherichia coli [34],13 mm
same,inhibition zone (IZ),Escherichia coli [35],6 mm
same,inhibition zone (IZ),Escherichia coli [36],29 mm
same,inhibition zone (IZ),Escherichia coli [37],28 mm
same,inhibition zone (IZ),Klebsiella pneumoniae [38],12 mm
same,inhibition zone (IZ),Escherichia coli [39],28 mm
same,inhibition zone (IZ),Escherichia coli [40],13 mm
same,inhibition zone (IZ),Escherichia coli [41],7 mm
same,inhibition zone (IZ),Escherichia coli [42],30 mm
same,inhibition zone (IZ),Escherichia coli [43],13 mm
same,inhibition zone (IZ),Escherichia coli [44],8 mm
